What was measured:
[1] = molecular target: Serotonin 2 (5-HT2) receptor (Rattus norvegicus, UniProt P08909+P14842+P30994); experiment: ChEBML_1935
Description: Inhibitory concentration against radioligand [3H]spiperone binding to 5-hydroxytryptamine 2 receptor in rat cortex

D(2) dopamine receptor = D(2) dopamine receptor (Rattus norvegicus, UniProt P61169); experiment: ChEBML_61741
Chain of D(2) dopamine receptor (P61169 whole entry): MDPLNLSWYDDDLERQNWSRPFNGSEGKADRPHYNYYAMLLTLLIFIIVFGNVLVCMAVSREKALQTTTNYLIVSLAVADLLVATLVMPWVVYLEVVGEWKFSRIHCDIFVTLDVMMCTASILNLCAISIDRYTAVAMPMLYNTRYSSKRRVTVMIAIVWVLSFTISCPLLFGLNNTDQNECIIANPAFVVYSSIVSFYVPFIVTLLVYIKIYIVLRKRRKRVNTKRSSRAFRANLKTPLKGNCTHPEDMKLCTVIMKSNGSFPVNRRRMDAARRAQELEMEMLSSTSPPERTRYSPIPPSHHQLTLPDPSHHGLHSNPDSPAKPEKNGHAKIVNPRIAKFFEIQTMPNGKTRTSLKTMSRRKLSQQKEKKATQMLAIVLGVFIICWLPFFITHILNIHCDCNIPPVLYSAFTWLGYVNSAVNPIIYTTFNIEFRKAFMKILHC
Description: Inhibitory concentration against radioligand [3H]spiperone binding to rat striatal Dopamine receptor D2

Chain of Serotonin 2 (5-HT2) receptor (P14842 whole entry): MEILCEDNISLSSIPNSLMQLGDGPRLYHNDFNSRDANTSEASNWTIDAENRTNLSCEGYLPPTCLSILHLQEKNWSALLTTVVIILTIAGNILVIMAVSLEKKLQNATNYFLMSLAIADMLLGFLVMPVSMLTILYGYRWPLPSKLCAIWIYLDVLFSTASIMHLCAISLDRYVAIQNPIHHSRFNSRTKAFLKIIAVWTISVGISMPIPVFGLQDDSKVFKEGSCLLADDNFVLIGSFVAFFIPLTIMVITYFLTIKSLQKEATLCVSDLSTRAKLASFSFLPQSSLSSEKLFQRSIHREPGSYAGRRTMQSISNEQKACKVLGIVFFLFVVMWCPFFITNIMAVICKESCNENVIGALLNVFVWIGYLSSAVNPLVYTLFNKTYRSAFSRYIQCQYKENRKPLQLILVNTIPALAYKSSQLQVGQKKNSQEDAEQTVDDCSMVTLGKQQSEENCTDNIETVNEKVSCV
Chain of Serotonin 2 (5-HT2) receptor (P08909 whole entry): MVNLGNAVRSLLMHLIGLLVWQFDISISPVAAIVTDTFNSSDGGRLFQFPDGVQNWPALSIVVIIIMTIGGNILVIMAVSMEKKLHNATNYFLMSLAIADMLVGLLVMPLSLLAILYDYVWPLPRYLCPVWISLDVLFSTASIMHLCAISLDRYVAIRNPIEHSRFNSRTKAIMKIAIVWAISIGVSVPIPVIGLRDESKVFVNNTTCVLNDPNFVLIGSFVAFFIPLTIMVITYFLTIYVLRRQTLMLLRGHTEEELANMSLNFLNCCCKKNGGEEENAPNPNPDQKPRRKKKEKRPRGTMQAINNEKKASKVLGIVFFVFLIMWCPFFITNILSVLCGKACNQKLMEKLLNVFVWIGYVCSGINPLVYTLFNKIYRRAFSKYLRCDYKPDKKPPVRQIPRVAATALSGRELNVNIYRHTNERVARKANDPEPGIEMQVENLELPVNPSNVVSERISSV
Chain of Serotonin 2 (5-HT2) receptor (P30994 whole entry): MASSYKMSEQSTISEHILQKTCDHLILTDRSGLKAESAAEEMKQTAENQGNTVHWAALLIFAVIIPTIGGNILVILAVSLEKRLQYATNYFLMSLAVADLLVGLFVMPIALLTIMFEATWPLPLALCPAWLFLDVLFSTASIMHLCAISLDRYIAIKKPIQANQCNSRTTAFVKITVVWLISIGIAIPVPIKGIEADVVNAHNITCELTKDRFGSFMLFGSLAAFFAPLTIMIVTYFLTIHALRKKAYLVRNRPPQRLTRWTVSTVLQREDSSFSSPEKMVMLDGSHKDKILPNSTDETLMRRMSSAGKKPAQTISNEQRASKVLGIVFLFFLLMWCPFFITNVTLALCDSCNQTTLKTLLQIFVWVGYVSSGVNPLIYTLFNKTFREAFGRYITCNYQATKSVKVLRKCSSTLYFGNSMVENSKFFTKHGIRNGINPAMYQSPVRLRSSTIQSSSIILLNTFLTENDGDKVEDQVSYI

An IC50 [1] of 1.7 µM and an IC50 (D(2) dopamine receptor) of 6.43 µM were found for `OC(CCCN1CCN(c2ncc(F)cn2)CC1)c1ccc(F)cc1` (configuration not stated) [1-(4-fluorophenyl)-4-(4-(5-fluoropyrimidin-2-yl)piperazin-1-yl)butan-1-ol] in this work.
